Measurements as given in BindingDB's records for PubMed 36327695 (n/a, 2022).

Key:
Maltase-glucoamylase [1] = biological target: T1, Maltase-glucoamylase (Homo sapiens, UniProt O43451); experiment: Inhibition of alpha-glucosidase (unknown origin) using pNPG as substrate preincubated with enzyme for 15 mins followed by substrate addition and measured after 10 mins by microplate reader analysis
Maltase-glucoamylase [2] = biological target: T1, Maltase-glucoamylase; experiment: Non-competitive inhibition of alpha-glucosidase (unknown origin) using pNPG as substrate preincubated with enzyme for 15 mins followed by substrate addition and measured for 15 mins by Dixon plot analysis

T1 sequence (O43451 whole entry): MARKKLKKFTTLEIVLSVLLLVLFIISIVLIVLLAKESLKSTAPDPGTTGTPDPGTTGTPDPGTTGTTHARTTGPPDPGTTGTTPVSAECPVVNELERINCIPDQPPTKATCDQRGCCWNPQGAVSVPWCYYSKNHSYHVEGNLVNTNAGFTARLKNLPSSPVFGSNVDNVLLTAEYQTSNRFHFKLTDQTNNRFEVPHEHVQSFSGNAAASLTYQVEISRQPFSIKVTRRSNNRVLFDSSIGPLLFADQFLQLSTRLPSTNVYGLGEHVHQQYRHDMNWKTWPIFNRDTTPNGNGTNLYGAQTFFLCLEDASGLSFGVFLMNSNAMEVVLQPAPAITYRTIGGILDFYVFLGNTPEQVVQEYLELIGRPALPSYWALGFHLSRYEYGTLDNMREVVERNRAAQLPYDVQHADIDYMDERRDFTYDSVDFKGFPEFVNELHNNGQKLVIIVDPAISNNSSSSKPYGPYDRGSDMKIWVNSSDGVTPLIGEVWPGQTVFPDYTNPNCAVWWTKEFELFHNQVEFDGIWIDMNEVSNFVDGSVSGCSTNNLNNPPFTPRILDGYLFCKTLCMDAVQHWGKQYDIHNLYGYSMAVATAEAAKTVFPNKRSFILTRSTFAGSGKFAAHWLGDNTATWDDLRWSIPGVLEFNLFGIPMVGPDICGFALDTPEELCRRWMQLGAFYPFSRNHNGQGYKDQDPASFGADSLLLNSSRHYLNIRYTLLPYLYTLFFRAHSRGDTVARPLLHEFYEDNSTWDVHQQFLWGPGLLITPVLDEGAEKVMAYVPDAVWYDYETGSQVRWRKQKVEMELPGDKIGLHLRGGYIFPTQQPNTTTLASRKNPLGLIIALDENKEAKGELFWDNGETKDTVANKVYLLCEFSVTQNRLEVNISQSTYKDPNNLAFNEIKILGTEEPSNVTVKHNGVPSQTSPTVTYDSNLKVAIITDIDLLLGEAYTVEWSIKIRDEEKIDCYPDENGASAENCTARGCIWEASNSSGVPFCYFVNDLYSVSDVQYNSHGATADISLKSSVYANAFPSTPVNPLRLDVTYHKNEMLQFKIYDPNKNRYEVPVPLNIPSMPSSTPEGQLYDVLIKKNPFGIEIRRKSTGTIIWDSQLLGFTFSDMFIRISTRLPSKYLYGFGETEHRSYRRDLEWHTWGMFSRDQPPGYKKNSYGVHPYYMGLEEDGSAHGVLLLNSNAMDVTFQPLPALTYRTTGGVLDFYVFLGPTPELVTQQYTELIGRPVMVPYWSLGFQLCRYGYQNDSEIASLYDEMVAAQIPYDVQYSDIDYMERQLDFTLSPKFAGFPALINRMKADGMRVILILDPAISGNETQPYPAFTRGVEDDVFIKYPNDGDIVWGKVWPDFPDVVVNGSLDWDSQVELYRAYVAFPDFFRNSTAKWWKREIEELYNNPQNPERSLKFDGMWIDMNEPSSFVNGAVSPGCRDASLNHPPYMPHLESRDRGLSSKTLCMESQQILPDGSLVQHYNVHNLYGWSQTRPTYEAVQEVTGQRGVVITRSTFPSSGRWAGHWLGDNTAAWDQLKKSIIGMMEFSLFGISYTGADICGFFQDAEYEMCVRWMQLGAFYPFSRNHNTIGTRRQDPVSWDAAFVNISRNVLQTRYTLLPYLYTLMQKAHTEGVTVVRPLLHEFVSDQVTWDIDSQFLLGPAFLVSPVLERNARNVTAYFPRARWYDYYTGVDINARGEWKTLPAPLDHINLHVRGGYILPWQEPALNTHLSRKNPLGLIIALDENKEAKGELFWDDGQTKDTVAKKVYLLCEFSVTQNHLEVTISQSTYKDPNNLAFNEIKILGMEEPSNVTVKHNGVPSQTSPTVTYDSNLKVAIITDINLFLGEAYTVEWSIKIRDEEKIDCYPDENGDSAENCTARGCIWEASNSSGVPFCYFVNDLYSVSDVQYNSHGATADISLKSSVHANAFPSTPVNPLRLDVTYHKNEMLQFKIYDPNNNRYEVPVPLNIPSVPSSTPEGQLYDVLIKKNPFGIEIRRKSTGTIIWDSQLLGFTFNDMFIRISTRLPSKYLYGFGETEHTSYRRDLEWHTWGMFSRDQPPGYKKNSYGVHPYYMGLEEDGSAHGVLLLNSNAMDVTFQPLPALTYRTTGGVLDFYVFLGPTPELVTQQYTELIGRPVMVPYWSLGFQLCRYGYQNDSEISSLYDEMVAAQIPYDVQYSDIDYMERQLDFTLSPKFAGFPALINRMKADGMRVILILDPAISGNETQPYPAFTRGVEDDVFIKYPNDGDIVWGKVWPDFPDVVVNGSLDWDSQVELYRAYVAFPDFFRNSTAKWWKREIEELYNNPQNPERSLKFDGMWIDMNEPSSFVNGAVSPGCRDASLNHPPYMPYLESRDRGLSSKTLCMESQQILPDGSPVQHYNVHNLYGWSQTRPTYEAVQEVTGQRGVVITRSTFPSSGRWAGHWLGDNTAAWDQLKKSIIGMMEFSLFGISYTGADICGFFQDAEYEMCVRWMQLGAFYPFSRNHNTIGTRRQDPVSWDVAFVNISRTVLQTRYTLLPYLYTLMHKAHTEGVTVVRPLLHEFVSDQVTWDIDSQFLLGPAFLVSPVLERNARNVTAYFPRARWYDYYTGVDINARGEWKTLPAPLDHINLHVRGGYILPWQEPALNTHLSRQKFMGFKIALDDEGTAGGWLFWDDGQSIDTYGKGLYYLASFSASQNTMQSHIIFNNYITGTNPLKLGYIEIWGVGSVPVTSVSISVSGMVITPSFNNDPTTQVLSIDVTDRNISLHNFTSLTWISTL

IC50 (Maltase-glucoamylase [1])	Ki (Maltase-glucoamylase [2])	Compound
18.6 µM		C=CCc1cc(-c2cc(CC=C)c(O)c(C(c3ccc(Cl)cc3)N3CCOCC3)c2)c(O)c(C(c2ccc(Cl)cc2)N2CCOCC2)c1 (configuration not stated)
14.9 µM	1.7 µM	C=CCc1cc(-c2ccc(O)c(CC=C)c2)c(O)c(C(c2cc(Cl)cc(Cl)c2)N2CCC(C)CC2)c1 (configuration not stated)
13.8 µM	3.27 µM	C=CCc1cc(-c2ccc(O)c(CC=C)c2)c(O)c(C(c2cc(Cl)cc(Cl)c2)N2CCOCC2)c1 (configuration not stated)
23.5 µM		C=CCc1cc(-c2ccc(O)c(CC=C)c2)c(O)c(C(c2cc(Cl)cc(Cl)c2)N2CCCCC2)c1 (configuration not stated)
30.4 µM		C=CCc1cc(-c2ccc(O)c(CC=C)c2)c(O)c(C(c2ccc(OC)cc2)N2CCCCC2)c1 (configuration not stated)
